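Compound exposure: 48 hours, 5 concentrations, 96-well plates. GI50: concentration for 50% inhibition of growth.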 Calls of active or inactive are those of the source. Rule as the data show it: active = GI50 up to about 1.1 µM and inactive = higher.
How the values were obtained:
Experiment in all cases: inhibition of tumour cell growth, NCI panel, 48 h
NCI-H522 = test system: NCI-H522
HCT-15 = test system: HCT-15
SNB-19 = test system: SNB-19
HL-60 = test system: HL-60
SN12C = test system: SN12C
NCI-H23 = test system: NCI-H23
A549 = test system: A549
UO-31 = test system: UO-31
SK-MEL-28 = test system: SK-MEL-28
MDA-N = test system: MDA-N
K562 = test system: K562
U-251 = test system: U-251
BT-549 = test system: BT-549
SNB-75 = test system: SNB-75
SF-268 = test system: SF-268
KM12 = test system: KM12
OVCAR-4 = test system: OVCAR-4
HOP-92 = test system: HOP-92
UACC-257 = test system: UACC-257
MCF7 = test system: MCF7
EKVX = test system: EKVX
UACC-62 = test system: UACC-62
SK-MEL-2 = test system: SK-MEL-2
NCI/ADR-RES = test system: NCI/ADR-RES
Malme-3M = test system: Malme-3M
CAKI-1 = test system: CAKI-1
RXF 393 = test system: RXF 393
OVCAR-5 = test system: OVCAR-5
IGROV-1 = test system: IGROV-1
COLO 205 = test system: COLO 205
NCI-H226 = test system: NCI-H226
RPMI-8226 = test system: RPMI-8226
TK-10 = test system: TK-10
SK-OV-3 = test system: SK-OV-3
SF-295 = test system: SF-295
HCT-116 = test system: HCT-116
786-0 = test system: 786-0
T47D = test system: T47D
Hs-578T = test system: Hs-578T
MDA-MB-231 = test system: MDA-MB-231
OVCAR-8 = test system: OVCAR-8
SW-620 = test system: SW-620
LOX IMVI = test system: LOX IMVI
A498 = test system: A498
DU-145 = test system: DU-145
MDA-MB-435 = test system: MDA-MB-435
ACHN = test system: ACHN
NCI-H460 = test system: NCI-H460
HT-29 = test system: HT-29
SK-MEL-5 = test system: SK-MEL-5
M14 = test system: M14
CCRF-CEM = test system: CCRF-CEM
HOP-62 = test system: HOP-62
HCC 2998 = test system: HCC 2998
PC-3 = test system: PC-3
SR = test system: SR
MOLT-4 = test system: MOLT-4
SF-539 = test system: SF-539
OVCAR-3 = test system: OVCAR-3

Measured: GI50

O=C1Nc2cc(Cl)ccc2C(=O)N2CCC[C@@H]12
active: NCI-H226 0.929 µM
inactive: NCI-H522 24.9 µM | SNB-19 > 100 µM | HL-60 > 100 µM | SN12C > 100 µM | NCI-H23 > 100 µM | A549 > 100 µM | UO-31 > 100 µM | SK-MEL-28 > 100 µM | MDA-N > 100 µM | K562 > 100 µM | U-251 > 100 µM | BT-549 > 100 µM | SNB-75 > 100 µM | SF-268 > 100 µM | KM12 > 100 µM | OVCAR-4 > 100 µM | HOP-92 > 100 µM | UACC-257 > 100 µM | MCF7 > 100 µM | EKVX > 100 µM | UACC-62 > 100 µM | SK-MEL-2 > 100 µM | NCI/ADR-RES > 100 µM | Malme-3M > 100 µM | CAKI-1 > 100 µM | RXF 393 > 100 µM | OVCAR-5 > 100 µM | IGROV-1 > 100 µM | COLO 205 57.1 µM | RPMI-8226 > 100 µM | TK-10 > 100 µM | SK-OV-3 > 100 µM | SF-295 > 100 µM | HCT-116 > 100 µM | 786-0 > 100 µM | T47D > 100 µM | Hs-578T 33.5 µM | MDA-MB-231 > 100 µM | OVCAR-8 > 100 µM | SW-620 > 100 µM | LOX IMVI > 100 µM | A498 > 100 µM | DU-145 > 100 µM | MDA-MB-435 > 100 µM | ACHN > 100 µM | NCI-H460 > 100 µM | HT-29 > 100 µM | SK-MEL-5 > 100 µM | M14 > 100 µM | CCRF-CEM > 100 µM | HOP-62 > 100 µM | HCC 2998 > 100 µM | PC-3 > 100 µM
> 100 µM: HCT-15

COC(=O)/C=C/c1cnc2c(c1)oc(=O)n2C
> 100 µM: HCT-15
inactive: SNB-19 > 100 µM | HL-60 > 100 µM | SN12C > 100 µM | NCI-H23 > 100 µM | A549 > 100 µM | UO-31 > 100 µM | SK-MEL-28 > 100 µM | MDA-N > 100 µM | K562 > 100 µM | U-251 > 100 µM | BT-549 > 100 µM | SNB-75 > 100 µM | SF-268 > 100 µM | KM12 > 100 µM | SR > 100 µM | OVCAR-4 > 100 µM | HOP-92 > 100 µM | UACC-257 > 100 µM | MCF7 > 100 µM | EKVX > 100 µM | MOLT-4 > 100 µM | SF-539 > 100 µM | UACC-62 > 100 µM | SK-MEL-2 > 100 µM | NCI/ADR-RES > 100 µM | Malme-3M > 100 µM | CAKI-1 > 100 µM | OVCAR-5 > 100 µM | IGROV-1 > 100 µM | COLO 205 > 100 µM | NCI-H226 > 100 µM | RPMI-8226 > 100 µM | TK-10 > 100 µM | SK-OV-3 > 100 µM | SF-295 > 100 µM | HCT-116 > 100 µM | 786-0 > 100 µM | T47D > 100 µM | OVCAR-3 > 100 µM | Hs-578T > 100 µM | MDA-MB-231 > 100 µM | OVCAR-8 > 100 µM | SW-620 > 100 µM | LOX IMVI > 100 µM | A498 > 100 µM | DU-145 > 100 µM | MDA-MB-435 > 100 µM | ACHN > 100 µM | NCI-H460 > 100 µM | HT-29 > 100 µM | SK-MEL-5 > 100 µM | M14 > 100 µM | CCRF-CEM > 100 µM | HOP-62 > 100 µM | HCC 2998 > 100 µM | PC-3 > 100 µM

OCC1OC(n2cnc3c(Cl)nc(Nc4ccccc4)nc32)CC1O (stereo unspecified)
20.8 µM: HCT-15
inactive: NCI-H522 5.2 µM | SNB-19 > 100 µM | SN12C > 100 µM | NCI-H23 29.3 µM | A549 17.7 µM | UO-31 18 µM | MDA-N 75.5 µM | K562 32.7 µM | U-251 > 100 µM | BT-549 35.6 µM | SNB-75 42.6 µM | SF-268 65.6 µM | KM12 > 100 µM | OVCAR-4 25.4 µM | HOP-92 2.74 µM | UACC-257 59.3 µM | MCF7 > 100 µM | EKVX 2.94 µM | MOLT-4 23.6 µM | SF-539 > 100 µM | UACC-62 40.5 µM | SK-MEL-2 45.7 µM | NCI/ADR-RES > 100 µM | Malme-3M 18.7 µM | CAKI-1 1.77 µM | RXF 393 57.1 µM | OVCAR-5 > 100 µM | IGROV-1 25.4 µM | COLO 205 > 100 µM | NCI-H226 > 100 µM | RPMI-8226 > 100 µM | TK-10 > 100 µM | SK-OV-3 > 100 µM | SF-295 > 100 µM | HCT-116 > 100 µM | 786-0 > 100 µM | T47D > 100 µM | OVCAR-3 75.5 µM | Hs-578T 35.2 µM | MDA-MB-231 31.2 µM | OVCAR-8 > 100 µM | SW-620 > 100 µM | LOX IMVI 19.2 µM | A498 70 µM | DU-145 > 100 µM | MDA-MB-435 60.1 µM | ACHN 17.3 µM | NCI-H460 49.9 µM | HT-29 > 100 µM | SK-MEL-5 > 100 µM | M14 60.1 µM | CCRF-CEM 26.1 µM | HOP-62 > 100 µM | HCC 2998 17.8 µM | PC-3 > 100 µM

CN(CCN(C)Cc1ccc(Cl)c(Cl)c1)CCN1CCCC1
37.2 µM: HCT-15
inactive: NCI-H522 19.6 µM | SNB-19 > 49.3 µM | HL-60 17.5 µM | SN12C > 48 µM | NCI-H23 42.1 µM | A549 22.6 µM | UO-31 11.6 µM | SK-MEL-28 6.78 µM | MDA-N 13.2 µM | K562 9.16 µM | U-251 21.3 µM | BT-549 65.6 µM | SNB-75 26 µM | SF-268 10.4 µM | KM12 29.9 µM | OVCAR-4 52.5 µM | HOP-92 4.44 µM | UACC-257 9.16 µM | MCF7 28.4 µM | EKVX > 64 µM | MOLT-4 9.33 µM | SF-539 19.6 µM | UACC-62 2.79 µM | SK-MEL-2 24.2 µM | NCI/ADR-RES 67.3 µM | Malme-3M 19.7 µM | CAKI-1 36 µM | RXF 393 18.5 µM | OVCAR-5 39.3 µM | IGROV-1 15.8 µM | COLO 205 19.2 µM | NCI-H226 39.1 µM | RPMI-8226 7.71 µM | TK-10 40 µM | SK-OV-3 71.9 µM | SF-295 26.1 µM | HCT-116 13.1 µM | 786-0 17.1 µM | T47D 57.9 µM | OVCAR-3 > 75.7 µM | Hs-578T 9.04 µM | MDA-MB-231 18.8 µM | OVCAR-8 20.1 µM | SW-620 24.3 µM | LOX IMVI 13.4 µM | A498 16.1 µM | DU-145 61.2 µM | MDA-MB-435 7.82 µM | ACHN > 43.3 µM | NCI-H460 27.5 µM | HT-29 6.32 µM | SK-MEL-5 14.9 µM | M14 23.2 µM | CCRF-CEM 3.72 µM | HOP-62 22.1 µM | HCC 2998 14.5 µM | PC-3 32.5 µM

Reference: ChEMBL document CHEMBL1201862, “PubChem BioAssay data set” (2004)
